Measured values taken from US8022051B2, “Composition for protection and improvement of skin, or reinforcing skin barrier function comprising phosphatidylserine” (Doosan Corporation, priority 2004, dated 2011).

Key:
hairless mouse = experiment: Skin barrier function restoration (TEWL) after tape stripping in hairless mice, oral administration; type: in vivo; conditions: 0.8 mg/mouse once a day for three weeks, up to 24 hours, compared to mouse not given phosphatidylserine, FIG. 9
Method: In this example 9, it was examined a difference of water loss restoration rates in a group to which the phosphatidylserine was administrated and a group to which the phosphatidylserine was not administrated, using the hairless mouse, so as to examine an effect of the phosphatidylserine on the skin barrier function restoring reinforcement.
First, a solution in which the phosphatidylserine (DS-PS, Doosan, Korea) was dispersed in a tertiary distilled water in a concentration of 400 mg/100 ml was used as a test material. It was prepared 10 hairless induced mice which were […] (Japan SLC Inc., Shizuoka, Japan). The solution was orally administrated to 5 mice of them in a dosage of 0.8 mg phosphatidylserine/mouse once a day and the tertiary distilled water was orally administrated to the other 5 mice. The medication period was three weeks. After that, it was measured a water evaporation loss for both sides of the backs of the hairless mice using a TEWL apparatus (TEWAMETER, TW210, Germany) (normal skin: about 10±2 g/hm^2). A Scotch tape was attached to the same positions and then cleared. […] After that, it was measured the water evaporation losses as time went by (i.e., before the injury, immediately after the injury, after 6 hours, after 9 hours and after 24 hours) to check the restoration rate of the skin barrier.

[1] = test system: normal human keratinocytes; experiment: Differentiation promoting effect in skin keratinocytes (western blot of involucrin and transglutaminase); type: cell-based; conditions: phosphatidylserine 20 and 40 μM, calcium 1.2 mM, clofibrate 200 and 400 μM; 24 hours; FIG. 5
Method: In order to examine a differentiation promoting effect in the skin keratinocytes by the phosphatidylserine of the invention, a following experiment was performed. First, the normal human keratinocytes (a gift from Dong-guk University) cultured in the KSFM (Keratinocyte-SFM; Gibco BRL/Life Technologies, USA) were seeded to the 35 mm^2 cell culture dish in an amount of 1.5×10^5 cells/dish and then cultured for a day. Next day, the culture medium was removed and a new culture medium containing 20 and 40 μM of phosphatidylserine aqueous solution, 1.2 mM calcium aqueous solution and 200 and 400 μM of clofibrate (Sigma, USA) added thereto was added and cultured for 24 hours. Next day, in order to make sure of a differentiation of the keratinocyte, a morphology change of the cell was checked with a phase contrast microscope (Nikon, Japan) and a photograph was taken with a digital camera attached to the microscope. In addition, a western blot was performed to check the protein expression amount of involucrin and transglutaminase, which have been known as a differentiation-marker proteins of the keratinocyte peculiar to the keratin. 500 μl of a lysis buffer having 2% sodium dodecyl sulfate (SDS) added thereto wad added and the cells were collected with a cell scrapper, so that cell lysate only was obtained. […]

[2] = test system: skin keratinocytes (HaCaT); experiment: Protection from ROS (hydrogen peroxide) in skin keratinocytes (MTT assay); type: cell-based; conditions: FIG. 8
Method: In order to measure an effect of protecting the skin from the ROS in the keratinocyte by the phosphatidylserine of the invention, a following experiment was performed.
First, the skin keratinocytes (HaCaT) were seeded to the 24-well plate in an amount of 5×10^4 cells/well. Next day, it was treated with 25 μM phosphatidylserine aqueous solution (Doosan Biotech, Korea) (phosphatidylserine-treated group), 100 μM vitamin C (ascorbic acid-treated group) and 100 μM vitamin E (a-tocopherol-treated group) as the positive control group and then cultured for 24 hours. Next day, it was treated with 1 mM hydrogen peroxide (H2O2) and then cultured for about 1˜1.5 hours. Then, a cell viability was examined with the MTT assay.

[3] = test system: skin keratinocyte cell line (HaCaT) and normal human keratinocytes; experiment: Reduction of inflammatory response induced by ultraviolet irradiation in skin keratinocytes (ELISA of TNF-a, IL-6, IL-1alpha); type: cell-based; conditions: 25 mJ/cm^2 UVB; phosphatidylserine 20 and 40 μM, WY-14643 200 μM; 24 hours; FIG. 3
Method: In order to examine an inflammatory response-reducing effect of the phosphatidylserine of the invention in the skin keratinocyte, which response results from the ultraviolet irradiation, a following experiment was performed in accordance with a method disclosed in the literature (Stefan et. al., The Journal of Investigate Dermatology, 117, pp 1430-1436, 2001).
First, the skin keratinocyte cell line (HaCaT, a gift from Yonsei univeritym, Korea) was seeded to a 35 mm^2 of cell culture dish in an amount of 3×10^5 cells/dish and then cultured for a day. Next day, the culture medium was removed and the cell was washed with 1× phosphate-buffered saline (PBS), 700 μl of 1×PBS was added to each of the dishes, it was irradiated 25 mJ/cm^2 UVB and then PBS was removed. […] Next day, the culture medium was collected and then amounts of TNF-a and IL-6 which have been known as inflammatory cytokines were measured with an enzyme-linked immunosorbent assay (ELISA) method. In addition, in order to check that there occurred a similar inflammatory response reducing effect also in the normal human skin keratinocyte, an experiment was performed in the above-mentioned manner using normal human keratinocytes (a gift from Dong-guk University) instead of the HaCaT cell line and then an amount of IL-1alpha secreted to the culture medium was measured with the ELISA.

[4] = test system: TPA-induced ear inflammation in CD-1 mouse; experiment: Alleviation of skin damage (inflammatory response) due to TPA in mouse ear; type: in vivo; conditions: TPA 0.03%; applied 30 μl per cm^2 at 45 minutes and 4 hours after induction; phosphatidylserine 0.5%, clofibrate 1 mM, Wy14643 1 mM; FIG. 2
Method: In order to examine a skin damage (inflammatory response)-alleviating effect of the phosphatidylserine of the invention, which damage results from skin inflammation-inducing material, a following experiment was performed in accordance with a method used by Sheu et. al. (The Journal of Investigate Dermatology, 118, pp 94-101, 2002).
First, CD-1 mouse (male & female, 6-8 weeks, Charles River, US) was used as an experimental object. TPA (12-0-tetradecanoylphorbol-13-acetate) 0.03% (wt./vol.; in acetone) solution 10 μl, which was skin inflammation-inducing material, was treated to inner and outer parts of both ears of the experimental animal. The ear was thickened due to TPA and there occurred an inflammatory response. Then, clofibrate (1 mM) and Wy14643 (1 mM) as already-known positive control group, which are agonists of PPAR-a, and the 0.5% phosphatidylserine containing aqueous solution used as the Example 1 as an experimental material were applied to both ears in an amount of 30 μl per cm^2 at times of 45 minutes and 4 hours after the inflammation was induced. After that, the treated parts of the ears were subject to a biopsy, and the biopsy parts were fixed to 4% formaldehyde and then subject to Hematoxylene & Eosin (E&H) staining. The tissue slide stained with H&E was magnified to 100 folds to check the inflammation alleviation.

phosphatidylserine
restoration rate of the skin barrier function (TEWL) (hairless mouse): higher restoration rate | protein expression of involucrin and transglutaminase [1]: rapidly increased the expressions of the proteins | protection effect from reactive oxygen species compared with the positive control material ([2]; phosphatidylserine 25 μM versus 100 μM positive controls): same protection effect with a smaller amount | protection effect from reactive oxygen species (cell viability, MTT) ([2]; phosphatidylserine 25 μM, vitamin C 100 μM, vitamin E 100 μM, 24 hours, then 1 mM H2O2 about 1-1.5 hours): exhibited the protection effect | inflammatory response increased due to the ultraviolet irradiation (TNF-a, IL-6, IL-1alpha amounts) [3]: considerably alleviated | inflammation alleviation (H&E stained ear tissue) [4]: inflammation was alleviated
